The source of these data is EP3909578A1, “ANTIVIRAL COMPOSITION COMPRISING EEYARESTATIN I” (Universidad de Castilla la Mancha, priority 2020, dated 2021).

Read-outs that look alike come from different tables or passages of the source.

For data set [1], the system named is Zika virus. The data set can be described thus: Virucidal activity: cell-free incubation of virus sample with drug at 37°C, then TCID50 titration. To be noted: for virucidal activity (loss of viral infectivity): incubation at 37°C in the absence of cells, EEY 10 µM, XAN 10 µM, AMA 800 µM for 4 hours, or 6 µM over time. The source says:
(§1) • Figure 1. Schematic representation of flavivirus life cycle and steps inhibited by eeyarestatin I. The antiviral effect observed during treatment with eeyarestatin I can be due to the inhibition of at least three different steps of the life cycle (indicated with a red star and highlighted in red letters). A, Inhibition of the valosin-containing protein / p97 ATPase (VCP/p97) and/or ERAD pathway indirectly affects virus replication on ER factories. B, Inhibition of VCP/p97 affects virus uncoating. C, Novel mechanism of action described in this invention: eeyarestatin I reduces virus particle infectivity before entering the cell (discovery patented here). • Figure 2. Cell viability after exposure to VCP/p97 inhibitors. Viability of Vero (African green monkey kidney fibroblasts) cells treated with VCP/p97 inhibitors xanthohumol (XAN) and eeyarestatin I (EEY) during 24 (A) or 48 hours (B). Cellular viability is represented as the percentage of metabolically active cells relative to mock-treated cells (CellTiter-Blue Cell Viability Assay, Promega). There are given the 50% cytotoxicity concentration (CC50) values for each drug and exposure time tested. • Figure 3. VCP/p97 drugs Xanthohumol and eeyarestatin I inhibit virus replication in cell culture (Vero cells). Virus titres measured by 50% tissue culture infectious dose (TCID50) in the supernatants of Zika virus-infected cells. A, Schematic representation of the assay. A monolayer of Vero cells was inoculated with Zika virus at a multiplicity of infection (MOI) of 1 TCID50 per cell (input). After 1 hour of incubation at 37°C, to allow virus adsorption, the supernatant was removed, the cells washed, and fresh media containing each drug at the concentrations indicated was added. At 24 hours post infection the cellular supernatants were collected (virus progeny) and the virus yields quantified by TCID50 (virus titration). B-C, Changes in virus titres and cell viability in cultures treated with increasing concentrations of eeyarestatin I (B) and xanthohumol (C) for 24 hours. The 50% inhibitory concentration (IC50) and the selectivity index (SI) values are provided for each drug. […] A, Schematic representation of the assay. The virus sample is directly incubated at 37°C in the presence of increasing concentrations of drugs. The treated sample is collected at different time points and directly titrated by TCID50. B-D Decrease in infectivity observed in a virus sample treated with amantadine (AMA), xanthohumol (XAN) or eeyarestatin I (EEY) and compared to a virus sample untreated (no drug) or mock-treated with vehicle (DMSO). B, Zika virus was incubated during 4 hours at 37°C in the presence of EEY (10 µM), XAN (10 µM), AMA (800 µM) or in the absence of drugs. C, Changes in the infectivity along time of a Zika virus sample incubated at 37°C in the presence of 6 µM EEY or XAN, or in the absence of drugs (No drug, DMSO). D, Changes in Usutu virus infectivity along time for a sample incubated at 37°C in the presence of 6 µM EEY or XAN, or in the absence of drugs (No drug, DMSO). • Figure 5. Eeyarestatin I exerts virucidal activity in a dose-dependent manner. […] Eeyarestatin I half maximum inhibitory concentration (IC50) is <1 µM for both Zika (A) and Usutu (B) viruses. • Figure 6. […] A, Schematic representation of the procedure to select adapted virus. In each virus passage, 100 µl of neat virus from the previous passage are inoculated to a monolayer of 10^5 Vero cells. After cell wash, the monolayer is incubated at 37°C and 5% CO2 in 1 ml of media (DMEM, 10% foetal bovine serum, 100 units penicillin-streptomycin) in the presence (EEY-adapted) or absence (untreated) of 5 µM eeyarestatin I. At 48 hours post-infection, the cellular supernatants are collected, titrated, and employed for the following virus passage. This process is repeated for a total of nine viral transfers. […]

Data set [2] concerns Usutu virus. The data set is described as above. The note with it: for virucidal activity (loss of viral infectivity): incubation at 37°C in the absence of cells, 6 µM over time.
Text: as §1

The subject of data set [3] is Zika virus. The data set can be described thus: Inhibition of Zika virus replication in infected Vero cell culture (MOI 1, virus yield by TCID50). The data set is classed as cell-based. The note with it: for Zika virus replication during infections in cell culture: Vero cells, MOI of 1, drug added after 1 hour adsorption, 24 hours post infection. The source says: • Figure 1. Schematic representation of flavivirus life cycle and steps inhibited by eeyarestatin I. The antiviral effect observed during treatment with eeyarestatin I can be due to the inhibition of at least three different steps of the life cycle (indicated with a red star and highlighted in red letters). A, Inhibition of the valosin-containing protein / p97 ATPase (VCP/p97) and/or ERAD pathway indirectly affects virus replication on ER factories. B, Inhibition of VCP/p97 affects virus uncoating. C, Novel mechanism of action described in this invention: eeyarestatin I reduces virus particle infectivity before entering the cell (discovery patented here). • Figure 2. Cell viability after exposure to VCP/p97 inhibitors. Viability of Vero (African green monkey kidney fibroblasts) cells treated with VCP/p97 inhibitors xanthohumol (XAN) and eeyarestatin I (EEY) during 24 (A) or 48 hours (B). Cellular viability is represented as the percentage of metabolically active cells relative to mock-treated cells (CellTiter-Blue Cell Viability Assay, Promega). There are given the 50% cytotoxicity concentration (CC50) values for each drug and exposure time tested. • Figure 3. VCP/p97 drugs Xanthohumol and eeyarestatin I inhibit virus replication in cell culture (Vero cells). Virus titres measured by 50% tissue culture infectious dose (TCID50) in the supernatants of Zika virus-infected cells. A, Schematic representation of the assay. A monolayer of Vero cells was inoculated with Zika virus at a multiplicity of infection (MOI) of 1 TCID50 per cell (input). After 1 hour of incubation at 37°C, to allow virus adsorption, the supernatant was removed, the cells washed, and fresh media containing each drug at the concentrations indicated was added. At 24 hours post infection the cellular supernatants were collected (virus progeny) and the virus yields quantified by TCID50 (virus titration). B-C, Changes in virus titres and cell viability in cultures treated with increasing concentrations of eeyarestatin I (B) and xanthohumol (C) for 24 hours. […]

The test system of data set [4] is Vero cells. The data set is described as follows: Cell viability of Vero cells after exposure to VCP/p97 inhibitors (CellTiter-Blue Cell Viability Assay). The data set is classed as cell-based, African green monkey. An excerpt: • Figure 1. Schematic representation of flavivirus life cycle and steps inhibited by eeyarestatin I. The antiviral effect observed during treatment with eeyarestatin I can be due to the inhibition of at least three different steps of the life cycle (indicated with a red star and highlighted in red letters). A, Inhibition of the valosin-containing protein / p97 ATPase (VCP/p97) and/or ERAD pathway indirectly affects virus replication on ER factories. B, Inhibition of VCP/p97 affects virus uncoating. C, Novel mechanism of action described in this invention: eeyarestatin I reduces virus particle infectivity before entering the cell (discovery patented here). • Figure 2. Cell viability after exposure to VCP/p97 inhibitors. Viability of Vero (African green monkey kidney fibroblasts) cells treated with VCP/p97 inhibitors xanthohumol (XAN) and eeyarestatin I (EEY) during 24 (A) or 48 hours (B). Cellular viability is represented as the percentage of metabolically active cells relative to mock-treated cells (CellTiter-Blue Cell Viability Assay, Promega). […] Virus titres measured by 50% tissue culture infectious dose (TCID50) in the supernatants of Zika virus-infected cells. […] At 24 hours post infection the cellular supernatants were collected (virus progeny) and the virus yields quantified by TCID50 (virus titration). […]
In general terms: Resazurin is reduced to fluorescent resorufin, in cell work by metabolically active cells.

Data set [5] deals with Zika virus passaged during nine consecutive transfers (p9). The data set is described as follows: Virucidal activity on Zika virus populations after nine passages with or without 5 µM eeyarestatin I (resistance selection). The source says: • Figure 1. Schematic representation of flavivirus life cycle and steps inhibited by eeyarestatin I. The antiviral effect observed during treatment with eeyarestatin I can be due to the inhibition of at least three different steps of the life cycle (indicated with a red star and highlighted in red letters). A, Inhibition of the valosin-containing protein / p97 ATPase (VCP/p97) and/or ERAD pathway indirectly affects virus replication on ER factories. B, Inhibition of VCP/p97 affects virus uncoating. C, Novel mechanism of action described in this invention: eeyarestatin I reduces virus particle infectivity before entering the cell (discovery patented here). • Figure 2. Cell viability after exposure to VCP/p97 inhibitors. Viability of Vero (African green monkey kidney fibroblasts) cells treated with VCP/p97 inhibitors xanthohumol (XAN) and eeyarestatin I (EEY) during 24 (A) or 48 hours (B). Cellular viability is represented as the percentage of metabolically active cells relative to mock-treated cells (CellTiter-Blue Cell Viability Assay, Promega). There are given the 50% cytotoxicity concentration (CC50) values for each drug and exposure time tested. • Figure 3. VCP/p97 drugs Xanthohumol and eeyarestatin I inhibit virus replication in cell culture (Vero cells). Virus titres measured by 50% tissue culture infectious dose (TCID50) in the supernatants of Zika virus-infected cells. A, Schematic representation of the assay. A monolayer of Vero cells was inoculated with Zika virus at a multiplicity of infection (MOI) of 1 TCID50 per cell (input). After 1 hour of incubation at 37°C, to allow virus adsorption, the supernatant was removed, the cells washed, and fresh media containing each drug at the concentrations indicated was added. At 24 hours post infection the cellular supernatants were collected (virus progeny) and the virus yields quantified by TCID50 (virus titration). B-C, Changes in virus titres and cell viability in cultures treated with increasing concentrations of eeyarestatin I (B) and xanthohumol (C) for 24 hours. The 50% inhibitory concentration (IC50) and the selectivity index (SI) values are provided for each drug. […] A, Schematic representation of the assay. The virus sample is directly incubated at 37°C in the presence of increasing concentrations of drugs. The treated sample is collected at different time points and directly titrated by TCID50. B-D Decrease in infectivity observed in a virus sample treated with amantadine (AMA), xanthohumol (XAN) or eeyarestatin I (EEY) and compared to a virus sample untreated (no drug) or mock-treated with vehicle (DMSO). B, Zika virus was incubated during 4 hours at 37°C in the presence of EEY (10 µM), XAN (10 µM), AMA (800 µM) or in the absence of drugs. […]

The mark [6] stands for this setting: cell-free incubation at 37°C, listed as Eeyarestatin I, read-out: IC50 (virucidal activity).
Where [7] appears, read: cell-free incubation at 37°C, read-out: IC50 (virucidal activity).

In the case of `COc1cc(O)c(CC=C(C)C)c(O)c1C(=O)/C=C/c1ccc(O)cc1` [xanthohumol, reference compound], the “virucidal activity (loss of viral infectivity)” value in data set [1] is “did not affect viral infectivity”; in data set [2], “no virucidal activity”. Further, the “Zika virus replication during infections in cell culture” value in data set [3] was “inhibit Zika virus replication”. Further, the “selectivity index (ratio of CC50 and IC50)” value in data set [3] (Zika virus replication in Vero cells) is above 5.
`NC12CC3CC(CC(C3)C1)C2` [amantadine, reference compound]: the “virucidal activity (loss of viral infectivity)” value in data set [1] is “did not affect viral infectivity”.
On to `CC1(C)C(N(O)C(=O)Nc2ccc(Cl)cc2)N(c2ccc(Cl)cc2)C(=O)N1CC(=O)N/N=C/C=C/c1ccc([N+](=O)[O-])o1` (centres unmarked) [eeyarestatin I], for which the “toxicity in cell culture” value in data set [4] (5 µM eeyarestatin I) is “very modest toxicity”. Also, in data set [4] (time = 24 hours, read-out: 50% toxicity for Vero cells (CC50)), the CC50 (in general, the concentration giving 50% cytotoxicity) was 24 µM. Further, the IC50 in data set [1] (setting [6]) is below 1 µM; in data set [1] (setting [7]), 0.59 µM; in data set [1] (time = 4 hours, read-out: estimated inhibitory constant) it was below 0.6 µM; in data set [2] (setting [6]), below 1 µM; in data set [2] (setting [7]) it was 0.15 µM; in data set [2] (time = 4 hours, read-out: estimated IC50), 0.15 µM. The IC50 in data set [5] (EEY-adapted Zika virus p9 (nine passages in 5 µM eeyarestatin I), 37°C for 4 hours) is 0.13 µM; in data set [5] (adapted Zika virus population (passaged 9 times in the presence of eeyarestatin I)), 0.13 µM; in data set [5] (untreated Zika virus p9 (nine passages without drug), 37°C for 4 hours) it was 0.31 µM; in data set [5] (untreated Zika virus population (nine passages in the absence of drugs)), 0.31 µM. In addition, the “virucidal activity (loss of viral infectivity)” value is reported as “significant loss of infectivity” in data set [1] and “inhibits Usutu virus infectivity” in data set [2]. In data set [3], the “Zika virus replication during infections in cell culture” value was “inhibit Zika virus replication”.
